According to paper PMC6132687, “Stem cells are the most sensitive screening tool to identify toxicity of GATA4-targeted novel small-molecule compounds” (Archives of Toxicology, 2018):

Tests used:
cardiac function = system: cardiac function; set-up: method as in Kinnunen et al. [2018]; details: after myocardial infarction or angiotensin II-induced cardiac hypertrophy; ref Kinnunen et al. [2018]; cited from earlier work
[1] = system: primary neonatal rat ventricular cardiomyocytes (NRVCs); assay: MTT assay in NRVCs; format: cell-based; details: 24 h
Method: (§1) The cells were exposed to the test compounds for 24 h and cytotoxicity was quantified with MTT and LDH assays as described previously (Talman et al. [2011]). For the determination of cell membrane integrity, 50 µl of medium from each well was transferred onto a new 96-well plate followed by addition of 50 µl of substrate solution containing 1.3 mM β-nicotinamide adenine dinucleotide, 660 µM iodonitrotetrazolium, 54 mM L(+)-lactic acid, 280 µM phenazine methosulphate and 0.2 M Tris–HCl (pH 8.0). After a 30-min incubation, the reaction was stopped by adding 50 µl of 1 M acetic acid to each well and absorbance was measured at 490 nm using Victor2 plate reader (PerkinElmer, Turku, Finland). Spontaneous LDH release was measured from untreated cells, maximal LDH release from cells lysed with 0.9% Triton X-100 and background absorbance was measured from wells without cells. After background extraction, cytotoxicity was calculated as follows: cytotoxicity (%) = [(sample − spontaneous LDH release)/(maximal LDH release − spontaneous LDH release)] × 100. For quantification of metabolic activity, 3-(4,5-dimethylthiazol-2-yl)-2,5-diphenyltetrazolium bromide (MTT) was added to the cells at a final concentration of 0.5 mg/ml followed by 2 h incubation in cell culture conditions. […] Absorbance was measured at 550 nm and absorbance at 650 nm was subtracted as background. […]

hiPSC-CMs = assay: MTT assay in hiPSC-CMs; format: cell-based, human; details: 24 h
Method: as §1

SMILES | cardiac function (cardiac function) | increase in metabolic activity in NRVCs [1] | increase in hiPSC-CM metabolic activity (hiPSC-CMs)
CCN(CC)c1ccc(NC(=O)c2c(-c3ccccc3)noc2C)cc1 [3i-1000] | improves cardiac function | – | –
CCN(CC)c1ccc(NC(=O)c2c(C)noc2-c2cc(C)on2)cc1 [3i-1047] | – | not observed | 51%
